# “And” between values parts separate entries of the source, which are not always exact repeats. Identical values can stand only once. Like-named read-outs stand apart in the source and are kept apart here.
# Tests used:
# [1] = target: T1, A502F RT RNase H function (Human immunodeficiency virus type 1 group M subtype B, UniProt P04585, A1089F); experiment: RNase H activity of mutated RT A502F; type: biochemical, HIV-1; settings: for RNase H Fold: vs wt RT
# T1 construct: Amino acid substitutions were introduced into the p66 HIV-1 RT subunit coded in a p6HRT-prot plasmid; made in house; host or cells: Escherichia coli strain M15
# Procedure: (§1) Amino acid substitutions were introduced into the p66 HIV-1 RT subunit coded in a p6HRT-prot plasmid using the QuikChange protocol (Agilent Technologies Inc., Santa Clara, CA).
# (§2) The RT-associated RNase H activity of wt and mutated HIV RTs was measured as described, in 100 µL reaction volume containing 50 mM Tris HCl pH 7.8, 6 mM MgCl2, 1 mM dithiothreitol (DTT), 80 mM KCl, hybrid RNA/DNA (5’-[…]-3’-Fluorescein, 5’-[…]-3’-Dabcyl), and different amounts of enzymes according to a linear range of dose-response curve—20 ng of wt RT; 50 ng K103N RT; 100 ng V108A RT; 4 ng Y181C RT; 100 ng Q475A RT; 100 ng A502F RT. The reaction mixture was incubated for 1 h at 37 °C, the reaction was stopped by addition of EDTA and products were measured with a Victor 3 (Perkin) at 490/528 nm.
# [2] = target: T2, Q475A RT RNase H function (Human immunodeficiency virus type 1 group M subtype B, UniProt P04585, Q1062A); experiment: RNase H activity of mutated RT Q475A; type: biochemical, HIV-1; settings: for RNase H Fold: vs wt RT
# T2 construct: Amino acid substitutions were introduced into the p66 HIV-1 RT subunit coded in a p6HRT-prot plasmid; made in house; host or cells: Escherichia coli strain M15
# Procedure: as §1, §2
# [3] = target: T3, V108A RT RNase H function (Human immunodeficiency virus type 1 group M subtype B, UniProt P04585, V695A); experiment: RNase H activity of mutated RT V108A; type: biochemical, HIV-1
# T3 construct: Amino acid substitutions were introduced into the p66 HIV-1 RT subunit coded in a p6HRT-prot plasmid; made in house; host or cells: Escherichia coli strain M15
# Procedure: as §1, §2
# [4] = target: T4, HIV-1 RT-associated RNase H activity (wt RT) (Human immunodeficiency virus type 1 group M subtype B, UniProt P04585); experiment: HIV-1 DNA polymerase-independent RNase H activity, wt RT; type: biochemical; settings: for IC50: RNase H IC50, wt RT
# T4 construct: RT is a heterodimeric (p66/p51) multifunctional enzyme; made in house; host or cells: Escherichia coli strain M15
# Procedure: p6HRT-prot vector was kindly provided by Dr. Stuart Le Grice Laboratory. Heterodimeric RT was expressed essentially as described. Briefly, Escherichia coli strain M15 containing the p6HRT-prot vector were grown up to an OD600 of 0.7 and induced with isopropyl β-D-1-thiogalactopyranoside (IPTG) 1.7 mM for 4 h. Cell pellets were resuspended in Lysis buffer (50 mM sodium phosphate pH 7.8, 0.5 mg/mL lysozyme), incubated on ice for 20 min, added 0.3 M final NaCl, sonicated and centrifuged at 30,000× g for 1 h. The supernatant was loaded into a Ni^2+-sepharose column pre-equilibrated with loading buffer (50 mM sodium phosphate pH 7.8, 0.3 M NaCl, 10% glycerol, 10 mM imidazole) and washed thoroughly with wash buffer (50 mM sodium phosphate pH 6.0, 0.3 M NaCl, 10% glycerol, 80 mM imidazole). RT was gradient-eluted with elute buffer (wash buffer with 0.5 M imidazole). Fractions were collected, protein purity was checked by SDS-PAGE and found to be higher than 90%. RT containing fractions were pooled and diluted 1:1 with dilute buffer (50 mM sodium phosphate pH 7.0, 10% glycerol) then loaded into a Hi-trap Heparine HP GE (Healthcare Lifescience) pre-equilibrated with 10-column volume of loading buffer 2 (50 mM sodium phosphate pH 7.0, 10% glycerol, 150 mM NaCl). Column was then washed with loading buffer 2 and RT was gradient-eluted with elute buffer 2 (50 mM sodium phosphate pH 7.0, 10% glycerol, 150 mM NaCl). Fractions were collected, protein was dialyzed and stored in buffer containing 50 mM Tris HCl pH 7.0, 25 mM NaCl, 1 mM EDTA, 50% glycerol. Catalytic activities and protein concentration were determined. Enzyme-containing fractions were pooled and aliquots were stored at −80 °C.
# as §2
# HIV-1 IIIB strain = experiment: Antiviral assay, HIV-1 replication in TZMbl cells (luciferase); type: cell-based; settings: Human immunodeficiency virus 1, TZM-bl; TZMbl cells, HIV-1 IIIB; read-out: HIV-1 EC50 TZMbl Cells
# Procedure: Drug-mediated inhibition of virus-induced cytotoxicity was assayed in TZM-BL cells. […] Serial dilutions of drugs were added immediately after infection. Luciferase activity was measured as reported [67]. Two days after infection, the culture medium was removed from each well and 100 µl of Bright Glo reagent (Promega, Luis Obispo, CA) was added to the cells for measurement of luminescence using a Victor 2 luminometer (Perkin). […] Cell viability in CEM cells was quantified 5 days after infection with the MTT-dye reduction method.
# [5] = Cell viability in CEM cells (MTT); type: cell-based; settings: human, MTT, 5 days
# Procedure: (§3) Drug-mediated inhibition of virus-induced cytotoxicity was assayed in TZM-BL cells. Triplicate wells of 96-well plates containing 1 × 10^4 TZMbl cells were infected with HIV-1 IIIB strain at a multiplicity of infection of 0.1. Serial dilutions of drugs were added immediately after infection. Luciferase activity was measured as reported. Two days after infection, the culture medium was removed from each well and 100 µl of Bright Glo reagent (Promega, Luis Obispo, CA) was added to the cells for measurement of luminescence using a Victor 2 luminometer (Perkin). The 50% effective concentration (EC50) was defined as the concentration that caused a 50% reduction of luciferase activity (relative light units) compared to virus control wells. Cell viability in CEM cells was quantified 5 days after infection with the MTT-dye reduction method.
# CEM cells = experiment: Cell viability in CEM cells (MTT); type: cell-based; settings: highest concentration tested
# Procedure: as §3
# [6] = Cytotoxicity in TZMbl cells; type: cell-based; settings: human
# TZMbl cells = experiment: Cytotoxicity in TZMbl cells; type: cell-based; settings: highest concentration tested
# [7] = target: T5, HIV-1 RT-associated RDDP activity (wt RT) (Human immunodeficiency virus type 1 group M subtype B, UniProt P04585); experiment: biochemical
# T5 construct: RT is a heterodimeric (p66/p51) multifunctional enzyme; made in house; host or cells: Escherichia coli strain M15
# Procedure: p6HRT-prot vector was kindly provided by Dr. Stuart Le Grice Laboratory. Heterodimeric RT was expressed essentially as described [42]. Briefly, Escherichia coli strain M15 containing the p6HRT-prot vector were grown up to an OD600 of 0.7 and induced with isopropyl β-D-1-thiogalactopyranoside (IPTG) 1.7 mM for 4 h. Cell pellets were resuspended in Lysis buffer (50 mM sodium phosphate pH 7.8, 0.5 mg/mL lysozyme), incubated on ice for 20 min, added 0.3 M final NaCl, sonicated and centrifuged at 30,000× g for 1 h. The supernatant was loaded into a Ni^2+-sepharose column pre-equilibrated with loading buffer (50 mM sodium phosphate pH 7.8, 0.3 M NaCl, 10% glycerol, 10 mM imidazole) and washed thoroughly with wash buffer (50 mM sodium phosphate pH 6.0, 0.3 M NaCl, 10% glycerol, 80 mM imidazole). RT was gradient-eluted with elute buffer (wash buffer with 0.5 M imidazole). Fractions were collected, protein purity was checked by SDS-PAGE and found to be higher than 90%. […] Catalytic activities and protein concentration were determined. […]
# The HIV-1 RT-associated RDDP activity was measured as described [66]. […]
# A502F RT RDDP activity = target: T6, A502F RT RDDP activity (Human immunodeficiency virus type 1 group M subtype B, UniProt P04585, A1089F); experiment: biochemical; design: species or system HIV-1
# T6 construct: Amino acid substitutions were introduced into the p66 HIV-1 RT subunit coded in a p6HRT-prot plasmid; made in house; host or cells: Escherichia coli strain M15
# Procedure: (§4) The HIV-1 RT-associated RDDP activity was measured as described [66]. Briefly, in 25 µL volume containing 60 mM Tris-HCl pH 8.1, 8 mM MgCl2, 60 mM KCl, 13 mM DTT, poly(A)-oligo(dT), 100 µM dTTP, and 6 ng wt RT (or 21 ng K103N RT; 30 ng V108A RT; 1,5 ng Y181C RT; 21 ng Q475A RT; 15 ng A502F RT).
# [8] = target: T7, Y181C RT RNase H function (Human immunodeficiency virus type 1 group M subtype B, UniProt P04585, Y768C); experiment: RNase H activity of mutated RT Y181C; type: biochemical, HIV-1
# T7 construct: Amino acid substitutions were introduced into the p66 HIV-1 RT subunit coded in a p6HRT-prot plasmid; made in house; host or cells: Escherichia coli strain M15
# Procedure: as §1, §2
# K103N RT RDDP activity = target: T8, K103N RT RDDP activity (Human immunodeficiency virus type 1 group M subtype B, UniProt P04585, K690N); experiment: biochemical; design: species or system HIV-1
# T8 construct: Amino acid substitutions were introduced into the p66 HIV-1 RT subunit coded in a p6HRT-prot plasmid; made in house; host or cells: Escherichia coli strain M15
# Procedure: as §4
# Q475A RT RDDP activity = target: T9, Q475A RT RDDP activity (Human immunodeficiency virus type 1 group M subtype B, UniProt P04585, Q1062A); experiment: biochemical; design: species or system HIV-1
# T9 construct: Amino acid substitutions were introduced into the p66 HIV-1 RT subunit coded in a p6HRT-prot plasmid; made in house; host or cells: Escherichia coli strain M15
# Procedure: as §4
# Y181C RT RDDP activity = target: T10, Y181C RT RDDP activity (Human immunodeficiency virus type 1 group M subtype B, UniProt P04585, Y768C); experiment: biochemical; design: species or system HIV-1
# T10 construct: Amino acid substitutions were introduced into the p66 HIV-1 RT subunit coded in a p6HRT-prot plasmid; made in house; host or cells: Escherichia coli strain M15
# Procedure: as §4
# V108A RT RDDP activity = target: T11, V108A RT RDDP activity (Human immunodeficiency virus type 1 group M subtype B, UniProt P04585, V695A); experiment: biochemical; design: species or system HIV-1
# T11 construct: Amino acid substitutions were introduced into the p66 HIV-1 RT subunit coded in a p6HRT-prot plasmid; made in house; host or cells: Escherichia coli strain M15
# Procedure: as §4
# [9] = target: T12, K103N RT RNase H function (Human immunodeficiency virus type 1 group M subtype B, UniProt P04585, K690N); experiment: RNase H activity of mutated RT K103N; type: biochemical, HIV-1
# T12 construct: Amino acid substitutions were introduced into the p66 HIV-1 RT subunit coded in a p6HRT-prot plasmid; made in house; host or cells: Escherichia coli strain M15
# Procedure: as §1, §2
SMILES,RNase H Fold ([1]; A502F RT),IC50 [2] [µM],RNase H Fold ([2]; Q475A RT),EC50 (HIV-1 IIIB strain) [µM],CC50 at 5 days [5] [µM],"percentage of cells viability in presence of the highest concentration of inhibitor tested, CEM cells (CEM cells) [%]",IC50 [4],CC50 [6] [µM],"percentage of cells viability in presence of the highest concentration of inhibitor tested, TZMbl (TZMbl cells) [%]",further results
"CC(C)c1ccc(O)c(=O)c(O)c1 [BTP, beta-Thujaplicinol, reference compound]",0.9,0.19 ± 0.03,1.0,,,,,,,"IC50 ([1]; A502F RT, read-out: RNase H IC50): 0.17 ± 0.03 µM; IC50 ([3]; read-out: RNase H IC50, V108A RT): 0.34 ± 0.4 µM; RNase H Fold ([4]; WT RT): 1"
"Cc1ccc(Cl)cc1Nc1nc(C(F)(F)F)ccc1C(=O)Oc1cccc(O)c1 [Compound 17, 3-Hydroxyphenyl 2-((5-chloro-2-methylphenyl)amino)-6-(trifluoromethyl)nicotinate]",,,,> 50,> 50,100,26.6 ± 5.6 µM,> 50,62,melting point: 188 to 190 °C
COc1cc(OC)cc(OC(=O)c2ccc(C(F)(F)F)nc2Nc2cc(Cl)ccc2C)c1 [Compound 21],>6.8,> 100,>6.8,5 ± 0.8,> 50,100,14 µM and 14.7 µM,> 50,59,"IC50 [1]: > 100 µM; RNase H IC50 ([1]; A502F RT): completely lost its RNase H inhibitory efficacy; IC50 [7]: 16.1 ± 1.2 µM; IC50 (A502F RT RDDP activity): 8 ± 0.7 µM; RDDP Fold (A502F RT RDDP activity; A502F RT, IC50 mutated RT / IC50 wt RT): 0.5; IC50 [8]: 11.9 ± 1.4 µM; IC50 (K103N RT RDDP activity): 16.5 ± 4.8 µM; RNase H IC50 ([2]; Q475A RT): completely lost its RNase H inhibitory efficacy; IC50 (Q475A RT RDDP activity): 17 ± 4.5 µM; IC50 [3]: > 100 µM; RNase H IC50 ([3]; V108A RT): completely lost its RNase H inhibitory efficacy; IC50 (Y181C RT RDDP activity): 22.5 ± 5.3 µM; IC50 (V108A RT RDDP activity): 82.8 ± 6.3 µM; IC50 [9]: 53.9 ± 2.2 µM"
COc1ccc(OC(=O)c2ccc(C(F)(F)F)nc2Nc2cc(Cl)ccc2C)cc1 [Compound 23],,,,> 10,> 50,100,11.6 ± 4.3 µM,> 50,70,
